{"source": "paper PMC9011347", "about": "“Small-Molecule Inhibitors Targeting Lipolysis in Human Adipocytes” (Journal of the American Chemical Society, 2022)", "key": {"HepG2 cells": {"tested_on": "HepG2 cells", "test": "Untargeted lipidomic analysis (UHPLC-MS, OPLS-DA)", "format": "cell-based, human", "details": "40 μM, 3 h, versus DMSO", "protocol": "Figure 2 Development and characterization of the human ATGL inhibitor NG-497. (a) Structure and IC50 values of human ATGL inhibitors. (b) Dose-dependent inhibition of human ATGL by respective inhibitors. (c) ATGL activity was determined at the indicated substrate concentrations in the absence and presence of NG-497 (0.5 μM). Ki was determined by nonlinear regression analysis using GraphPad Prism. Lineweaver–Burk analysis of ATGL inhibition is shown in the inset. (d) Toxicity of NG-497 in HepG2 cells was determined after 24 h incubation at indicated concentrations. Cisplatin and DMSO were used as positive and negative controls, respectively. Cytotoxicity was determined using the Roche LDH Kit and calculated as relative LDH release compared to fully lysed cells. (e) Stability of NG-497 was analyzed via ultrahigh-performance liquid chromatography–mass spectrometry (UHPLC-MS) after incubation in human serum for 0 or 3 h at 37 °C. Atglistatin and a chemically related unstable compound were used as controls. […] NG-497 concentrations/well were determined at the indicated time points using UHPLC-MS. […] Statistical significance was determined via t test (*p < 0.05; **p < 0.01; ***p < 0.001) or ANOVA followed by Bonferroni post hoc test (^###p < 0.001). […] The detected 297 lipid species of both groups were analyzed with supervised multivariate analysis OPLS-DA and are shown as a loading plot. […]"}, "[1]": {"tested_on": "primary human omental adipocytes", "test": "Lipolysis in human omental adipocytes", "format": "cell-based", "details": "NG-497 40 µM", "protocol": "Fig. S5: Effect of NG-497 on lipolysis in human omental adipocytes. Omental preadipocytes were obtained from Zen-Bio and differentiated into adipocytes in 96-well trays according to the manufacturer's instructions (OP-F-SL, ZenBio). Cells were then labeled with [9,10-3H] oleic acid (1µCi/well) in full medium for 12 h, washed, and preincubated for 1 h with NG-497 (40 µM) or DMSO (carrier) as a control. Subsequently, the medium was replaced with DMEM containing 2% FA-free BSA and basal as well as Forskolin-stimulated release of radioactivity was monitored in the presence or absence of NG-497. After a 4 h incubation period, cells were lysed in NaOH/SDS (0.3 M/0.1%) and cell-associated radioactivity was determined by liquid scintillation.\nCell-associated radioactivity at time-point 0 (pulse) was calculated as sum of the radioactivity detected in medium and cells after the 4 h chase. The release of fatty acids is shown as % of cell-associated radioactivity.\nIn the presence of Forskolin, cells lost ~ 20% of the\n(b) Time course of FA release during the 4 h chase period. NG-497 reduced basal lipolysis by ~50% and extinguished Forskolin-stimulated lipolysis. Data are presented as mean ± S.D (n = 4). Statistical significance was determined via ANOVA followed by Bonferroni post hoc test (***, p < 0.001).\n(1 picture or pasted object on this page, not shown here)"}}}
{"smiles": "CCOc1ccc(-c2cc(OC)cc(C(=O)OC(C)C)n2)cc1", "note": "[NG-497]", "values": [{"measurement": "lipidomic changes (OPLS-DA top 25 contributing lipid species)", "setting": "HepG2 cells", "value": "20 of the top 25 hits were due to an increase of TAG species, while three DAG species were decreased"}, {"measurement": "Forskolin-induced loss of cell-associated radiolabel (~ 20%)", "setting": "[1]; 4 h", "value": "completely prevented"}, {"measurement": "Forskolin-induced TAG degradation and FA release (Forskolin-stimulated lipolysis)", "setting": "[1]; 4 h chase", "value": "extinguished"}, {"measurement": "reduction of basal lipolysis", "setting": "[1]; 4 h chase", "value": "~ 50%"}]}
